This assay has as its target T1, TMV CP (tobacco mosaic virus coat protein) (Tobacco mosaic virus (vulgare), UniProt P69687).
T1 construct: labelled with Monolith NT Protein Labeling Kit Red
Briefly: microscale thermophoresis. It counts as binding. From the text:
microscale thermophoresis on TMV CP (tobacco mosaic virus coat protein)
T1 sequence (P69687 2-159 limits assumed): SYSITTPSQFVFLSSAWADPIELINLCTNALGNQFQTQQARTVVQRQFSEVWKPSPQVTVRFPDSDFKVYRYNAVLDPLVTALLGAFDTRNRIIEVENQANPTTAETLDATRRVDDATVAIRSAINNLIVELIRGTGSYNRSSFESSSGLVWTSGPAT
Regarding `COc1ccc(/C=C/C(=O)c2ccc(OCCSc3ncnc4ccccc34)cc2)cc1OC` [M6, (E)-3-(3,4-Dimethoxyphenyl)-1-(4-(2-(quinazolin-4-ylthio)ethoxy)phenyl)prop-2-en-1-one], the Kd came to 31.1 ± 1.83 µM.
Compound `NC(=O)c1ncn([C@@H]2O[C@H](CO)[C@@H](O)[C@H]2O)n1` [Ribavirin] gave a Kd of 511 ± 33.1 µM.
`O=C(/C=C/c1ccc(Cl)cc1)c1ccc(OCCSc2ncnc3ccccc23)cc1` [M15] gave a Kd of 346 ± 23.9 µM.

Values taken from PMC6332188, “Synthesis, Antiviral Bioactivity of Novel 4-Thioquinazoline Derivatives Containing Chalcone Moiety” (Molecules, 2015).
